According to PMC5148701 (Journal of medicinal chemistry, 2016):
Several values for one entry are separate records, joined by “and”; a condition that tells them apart may be missing. Equal entries are not always repeated. Entries after “also recorded” stand apart in the source; their conditions may differ. Where two headings read alike, the source gives them in different places.

How the values were obtained:
hD2L receptors = hD2L receptors (Homo sapiens, UniProt P14416); test: D2R Gi/o-mediated cAMP inhibition assay; type: cell-based; conditions: for Emax: HEK-293T; for activity in Gi/o signaling (in words): cAMP inhibition assay
Chain of hD2L receptors (P14416 whole entry): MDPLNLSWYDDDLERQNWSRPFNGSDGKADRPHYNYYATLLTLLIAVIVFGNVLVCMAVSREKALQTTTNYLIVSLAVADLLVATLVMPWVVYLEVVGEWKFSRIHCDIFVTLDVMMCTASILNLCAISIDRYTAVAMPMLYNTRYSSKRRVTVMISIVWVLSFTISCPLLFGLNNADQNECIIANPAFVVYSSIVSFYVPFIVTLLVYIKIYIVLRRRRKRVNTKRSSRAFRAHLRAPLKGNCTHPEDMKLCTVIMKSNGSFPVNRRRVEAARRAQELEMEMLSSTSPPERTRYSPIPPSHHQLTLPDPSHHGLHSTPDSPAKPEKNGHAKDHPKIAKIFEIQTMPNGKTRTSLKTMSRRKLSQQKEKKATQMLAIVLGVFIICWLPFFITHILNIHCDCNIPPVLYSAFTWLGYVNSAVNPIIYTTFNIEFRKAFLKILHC

D2L receptors = D2L receptors (Homo sapiens, UniProt P14416); test: D2R β-arrestin-2 recruitment Tango assay; type: cell-based; conditions: for Emax: HTLA, read-out: β-arrestin Emax (%); for EC50: β-arrestin EC50 (nM)
Chain of D2L receptors (P14416 whole entry): as above

mouse D2Long = mouse D2Long (Mus musculus, UniProt P61168); test: BRET β-arrestin-2 recruitment assay with GRK2 co-expression; type: cell-based; conditions: for β-arrestin-2 recruitment agonist activity in BRET assay: up to 1 µM, GRK2 co-expressed
Chain of mouse D2Long (P61168 whole entry): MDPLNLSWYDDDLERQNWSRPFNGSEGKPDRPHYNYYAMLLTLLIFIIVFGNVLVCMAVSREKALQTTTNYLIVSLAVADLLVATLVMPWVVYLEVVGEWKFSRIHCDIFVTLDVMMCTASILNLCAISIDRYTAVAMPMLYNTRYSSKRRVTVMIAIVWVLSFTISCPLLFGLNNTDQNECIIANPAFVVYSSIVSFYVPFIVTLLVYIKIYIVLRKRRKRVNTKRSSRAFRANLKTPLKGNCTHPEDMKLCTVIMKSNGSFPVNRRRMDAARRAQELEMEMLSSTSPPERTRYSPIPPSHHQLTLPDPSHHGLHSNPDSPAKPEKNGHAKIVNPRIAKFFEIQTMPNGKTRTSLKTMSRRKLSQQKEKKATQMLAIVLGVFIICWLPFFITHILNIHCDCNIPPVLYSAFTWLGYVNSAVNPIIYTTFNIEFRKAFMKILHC

human D2Rlong [1] = target: T1, human D2Rlong (Homo sapiens, UniProt P14416); test: DiscoverX PathHunter D2R β-arrestin-2 recruitment assay; type: cell-based; conditions: D2R-expressing CHO cells; up to 10 µM; n=1, performed in duplicate
T1 sequence (P14416 whole entry): as the sequence (P14416 whole entry) above

human D2Rlong [2] = target: T1, human D2Rlong; test: cell-based
D2R = D2R (Homo sapiens, UniProt P14416); test: Radioligand binding, D2R
Chain of D2R (P14416 whole entry): as above

D3R = D3R (Homo sapiens, UniProt P35462); test: Radioligand binding, D3R
Chain of D3R (P35462 whole entry): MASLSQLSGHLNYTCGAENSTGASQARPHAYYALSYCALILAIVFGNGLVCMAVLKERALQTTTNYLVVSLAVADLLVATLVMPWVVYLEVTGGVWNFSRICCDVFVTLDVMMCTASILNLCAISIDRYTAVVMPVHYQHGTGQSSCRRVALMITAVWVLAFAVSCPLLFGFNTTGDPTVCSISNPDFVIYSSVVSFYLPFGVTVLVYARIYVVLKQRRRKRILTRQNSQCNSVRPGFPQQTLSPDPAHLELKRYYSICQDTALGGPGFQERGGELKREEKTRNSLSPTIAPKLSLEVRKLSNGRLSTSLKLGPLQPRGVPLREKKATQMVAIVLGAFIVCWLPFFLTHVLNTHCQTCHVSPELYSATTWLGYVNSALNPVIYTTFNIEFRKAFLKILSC

D4R = target: T2, D4R (Homo sapiens, UniProt P21917); test: Radioligand binding, D4R
T2 sequence (P21917 1-419): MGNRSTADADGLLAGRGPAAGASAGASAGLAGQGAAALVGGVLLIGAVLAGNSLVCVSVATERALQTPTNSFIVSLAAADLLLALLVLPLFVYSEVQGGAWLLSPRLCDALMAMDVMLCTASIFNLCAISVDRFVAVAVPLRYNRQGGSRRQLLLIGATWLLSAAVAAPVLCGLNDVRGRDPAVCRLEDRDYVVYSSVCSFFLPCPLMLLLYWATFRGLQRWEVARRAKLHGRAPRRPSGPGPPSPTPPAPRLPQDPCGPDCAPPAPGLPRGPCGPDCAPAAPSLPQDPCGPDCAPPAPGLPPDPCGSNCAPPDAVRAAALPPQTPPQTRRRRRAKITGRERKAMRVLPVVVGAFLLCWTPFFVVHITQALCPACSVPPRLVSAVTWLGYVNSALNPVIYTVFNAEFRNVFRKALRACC

5-HT1A = target: T3, 5-HT1A (Homo sapiens, UniProt P08908); test: Radioligand binding, 5-HT1A
T3 sequence (P08908 1-422): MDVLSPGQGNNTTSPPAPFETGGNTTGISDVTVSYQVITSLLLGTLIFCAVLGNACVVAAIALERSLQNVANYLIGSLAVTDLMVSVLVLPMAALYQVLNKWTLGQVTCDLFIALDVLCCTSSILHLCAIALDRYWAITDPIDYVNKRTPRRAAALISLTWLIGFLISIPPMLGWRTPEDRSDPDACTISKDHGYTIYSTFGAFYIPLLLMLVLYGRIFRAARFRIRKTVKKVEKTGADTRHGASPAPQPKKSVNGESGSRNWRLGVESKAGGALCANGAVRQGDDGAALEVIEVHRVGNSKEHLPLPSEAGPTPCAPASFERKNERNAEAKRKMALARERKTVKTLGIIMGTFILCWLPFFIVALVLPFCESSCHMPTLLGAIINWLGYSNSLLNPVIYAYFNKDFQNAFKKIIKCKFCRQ

5-HT1B = 5-HT1B (Homo sapiens, UniProt P28222); test: Radioligand binding, 5-HT1B
Chain of 5-HT1B (P28222 whole entry, species assumed): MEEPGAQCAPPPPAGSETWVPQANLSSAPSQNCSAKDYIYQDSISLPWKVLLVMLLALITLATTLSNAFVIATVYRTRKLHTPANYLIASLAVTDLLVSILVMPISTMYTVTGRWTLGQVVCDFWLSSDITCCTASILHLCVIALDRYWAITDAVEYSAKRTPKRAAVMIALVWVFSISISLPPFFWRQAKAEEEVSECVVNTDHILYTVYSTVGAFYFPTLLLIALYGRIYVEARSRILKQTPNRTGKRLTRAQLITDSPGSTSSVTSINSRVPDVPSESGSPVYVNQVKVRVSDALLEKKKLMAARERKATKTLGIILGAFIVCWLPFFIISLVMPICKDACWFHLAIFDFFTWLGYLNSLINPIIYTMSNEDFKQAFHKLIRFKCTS

5-HT1D = 5-HT1D (Homo sapiens, UniProt P28221); test: Radioligand binding, 5-HT1D
Chain of 5-HT1D (P28221 whole entry, species assumed): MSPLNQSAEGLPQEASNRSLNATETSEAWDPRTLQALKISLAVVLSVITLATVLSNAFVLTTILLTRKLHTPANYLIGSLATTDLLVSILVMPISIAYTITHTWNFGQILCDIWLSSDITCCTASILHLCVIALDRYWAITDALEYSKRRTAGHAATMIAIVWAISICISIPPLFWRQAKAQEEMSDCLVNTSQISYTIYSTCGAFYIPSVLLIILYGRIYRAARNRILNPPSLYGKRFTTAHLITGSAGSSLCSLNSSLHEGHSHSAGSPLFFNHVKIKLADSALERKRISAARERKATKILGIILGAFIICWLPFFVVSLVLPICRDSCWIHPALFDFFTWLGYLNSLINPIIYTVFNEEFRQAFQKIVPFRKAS

5-HT2A = 5-HT2A (Homo sapiens, UniProt P28223); test: Radioligand binding, 5-HT2A
Chain of 5-HT2A (P28223 whole entry, species assumed): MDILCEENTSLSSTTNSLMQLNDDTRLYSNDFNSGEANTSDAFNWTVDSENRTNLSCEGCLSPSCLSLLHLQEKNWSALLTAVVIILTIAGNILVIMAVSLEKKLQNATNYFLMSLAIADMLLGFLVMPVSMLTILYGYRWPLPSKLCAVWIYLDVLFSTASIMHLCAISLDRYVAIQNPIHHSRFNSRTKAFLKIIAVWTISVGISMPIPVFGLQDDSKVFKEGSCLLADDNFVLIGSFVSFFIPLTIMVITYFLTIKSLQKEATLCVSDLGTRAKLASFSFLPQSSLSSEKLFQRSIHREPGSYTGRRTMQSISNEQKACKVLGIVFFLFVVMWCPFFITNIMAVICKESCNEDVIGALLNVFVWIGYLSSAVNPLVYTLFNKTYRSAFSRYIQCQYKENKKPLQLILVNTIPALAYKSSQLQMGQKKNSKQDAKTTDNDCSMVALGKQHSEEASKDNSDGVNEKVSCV

5-HT2B = 5-HT2B (Homo sapiens, UniProt P41595); test: Radioligand binding, 5-HT2B
Chain of 5-HT2B (P41595 whole entry, species assumed): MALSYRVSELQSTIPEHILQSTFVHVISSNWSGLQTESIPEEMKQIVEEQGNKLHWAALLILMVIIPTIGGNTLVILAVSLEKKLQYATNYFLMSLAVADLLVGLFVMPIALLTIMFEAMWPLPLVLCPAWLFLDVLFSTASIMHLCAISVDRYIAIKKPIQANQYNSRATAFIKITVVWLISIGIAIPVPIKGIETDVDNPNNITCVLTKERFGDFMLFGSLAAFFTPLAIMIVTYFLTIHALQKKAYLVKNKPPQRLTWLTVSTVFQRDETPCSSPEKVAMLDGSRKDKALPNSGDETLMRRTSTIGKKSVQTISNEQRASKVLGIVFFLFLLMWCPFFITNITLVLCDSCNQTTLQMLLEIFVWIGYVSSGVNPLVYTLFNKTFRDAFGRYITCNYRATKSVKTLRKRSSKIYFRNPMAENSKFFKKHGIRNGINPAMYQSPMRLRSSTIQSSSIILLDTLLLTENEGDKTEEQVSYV

5-HT7 = 5-HT7 (Homo sapiens, UniProt P34969); test: Radioligand binding, 5-HT7
Chain of 5-HT7 (P34969 whole entry, species assumed): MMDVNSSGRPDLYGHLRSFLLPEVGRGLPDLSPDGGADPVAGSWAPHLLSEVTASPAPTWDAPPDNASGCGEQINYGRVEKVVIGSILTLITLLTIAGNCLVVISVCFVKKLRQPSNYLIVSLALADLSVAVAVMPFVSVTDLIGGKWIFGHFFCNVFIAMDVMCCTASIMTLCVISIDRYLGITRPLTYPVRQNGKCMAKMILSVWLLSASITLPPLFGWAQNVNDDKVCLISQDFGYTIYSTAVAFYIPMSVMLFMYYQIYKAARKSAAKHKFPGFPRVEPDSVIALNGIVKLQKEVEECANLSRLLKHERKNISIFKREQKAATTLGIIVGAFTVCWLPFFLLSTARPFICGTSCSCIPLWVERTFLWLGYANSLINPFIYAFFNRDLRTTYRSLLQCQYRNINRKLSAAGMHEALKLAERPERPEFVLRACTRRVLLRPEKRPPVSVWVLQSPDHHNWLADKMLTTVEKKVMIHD

D1R = D1R (Homo sapiens, UniProt P21728); test: Radioligand binding, D1R; conditions: read-out: Binding affinity Ki (nM), D1R; radioligand binding
Chain of D1R (P21728 whole entry): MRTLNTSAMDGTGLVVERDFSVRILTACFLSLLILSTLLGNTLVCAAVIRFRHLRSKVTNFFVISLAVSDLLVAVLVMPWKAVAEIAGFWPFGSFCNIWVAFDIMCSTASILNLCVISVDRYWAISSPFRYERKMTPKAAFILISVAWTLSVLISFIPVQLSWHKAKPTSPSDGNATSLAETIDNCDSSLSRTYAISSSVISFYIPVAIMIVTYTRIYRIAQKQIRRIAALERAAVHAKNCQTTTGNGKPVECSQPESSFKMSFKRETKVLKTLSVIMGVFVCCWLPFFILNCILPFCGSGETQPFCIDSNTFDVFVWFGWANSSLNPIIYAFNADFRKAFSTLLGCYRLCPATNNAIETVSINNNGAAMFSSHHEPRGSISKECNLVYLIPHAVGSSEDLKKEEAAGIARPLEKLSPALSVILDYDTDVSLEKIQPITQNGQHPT

D5R = D5R (Homo sapiens, UniProt P21918); test: Radioligand binding, D5R; conditions: read-out: Binding affinity Ki (nM), D5R; radioligand binding
Chain of D5R (P21918 whole entry): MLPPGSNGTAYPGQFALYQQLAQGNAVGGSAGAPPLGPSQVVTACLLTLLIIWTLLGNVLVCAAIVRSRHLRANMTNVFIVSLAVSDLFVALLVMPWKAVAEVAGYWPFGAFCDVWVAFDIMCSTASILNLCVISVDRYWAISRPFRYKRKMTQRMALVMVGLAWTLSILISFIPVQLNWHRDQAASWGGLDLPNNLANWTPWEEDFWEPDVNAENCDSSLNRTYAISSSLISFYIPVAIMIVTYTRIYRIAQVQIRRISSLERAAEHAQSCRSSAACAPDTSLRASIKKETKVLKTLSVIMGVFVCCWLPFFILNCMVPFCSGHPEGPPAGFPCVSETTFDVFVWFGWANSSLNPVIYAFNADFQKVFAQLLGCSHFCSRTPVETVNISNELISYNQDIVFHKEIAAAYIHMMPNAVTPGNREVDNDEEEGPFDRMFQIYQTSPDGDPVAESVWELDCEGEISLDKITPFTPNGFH

[3] = read-out: cAMP Emax (%), HEK293T cells, GloSensor-22F, normalized to maximum cAMP inhibition by quinpirole (100%)

SMILES: Cc1nc2cc(OCCCCN3CCN(c4cccc(Cl)c4Cl)CC3)ccc2s1 [Compound 1, 5-(4-(4-(2,3-Dichlorophenyl)piperazin-1-yl)butoxy)-2-methylbenzo[d]thiazole]
- Emax (hD2L receptors; [3]): 50%
- inhibition of dopamine-stimulated D2R G protein activation as measured by cAMP inhibition (hD2L receptors; antagonist mode, Figure S2): partial inhibition
- Emax (D2L receptors): 23%
- EC50 (D2L receptors; Tango assay, HTLA cells): 13 nM
- IC50 (mouse D2Long): 18 nM
- antagonist activity on dopamine-stimulated β-arrestin-2 recruitment (BRET) (mouse D2Long; antagonist mode): full antagonist activity
- β-arrestin-2 recruitment agonist activity in BRET assay (mouse D2Long): no activity
- β-arrestin recruitment activity as measured by DiscoverX (human D2Rlong [1]): lack of β-arrestin-2 recruitment activity; also recorded: no activity
- EC50 (human D2Rlong [2]): 3.6 nM
- Gαi1-Gγ2 dissociation BRET partial agonist activity relative to quinpirole (human D2Rlong [2]; HEK293T cells): 57%
- Ki (D2R): 150 nM
- Ki (D3R): 13 nM
- Ki (D4R): 82 nM
- Ki (5-HT1A; Binding affinity Ki (nM), 5-HT1A): 86 nM
- Ki (5-HT1B): 1700 nM
- Ki (5-HT1D): 320 nM
- Ki (5-HT2A): 120 nM
- Ki (5-HT2B; Binding affinity Ki (nM), 5-HT2B): 38 nM
- Ki (5-HT7): 140 nM

SMILES: CNc1nc2cc(OCCCCN3CCN(c4cccc(Cl)c4Cl)CC3)ccc2s1 [Compound 24, 5-(4-(4-(2,3-Dichlorophenyl)piperazin-1-yl)butoxy)-N methylbenzo[d]thiazol-2-amine]
- cAMP Emax (%) (hD2L receptors; HEK293T cells, GloSensor-22F, normalized to maximum cAMP inhibition by quinpirole (100%)): 40%
- β-arrestin Emax (%) (D2L receptors; Tango assay, HTLA cells, normalized to quinpirole (100%)): <20%
- β-arrestin-2 recruitment agonist activity in BRET assay (mouse D2Long): not active; also recorded: no β-arrestin recruitment
- Ki (D2R; read-out: Binding affinity Ki (nM), D2R, radioligand binding): 60 nM
- Ki (D1R): 1100 nM
- Ki (D3R; read-out: Binding affinity Ki (nM), D3R, radioligand binding): 35 nM
- Ki (D4R; read-out: Binding affinity Ki (nM), D4R, radioligand binding): 280 nM
- Ki (D5R): 1500 nM
- Ki (5-HT1A; read-out: Binding affinity Ki (nM), 5-HT1A): 55 nM
- Ki (5-HT1B; read-out: Binding affinity Ki (nM), 5-HT1B, radioligand binding): 1400 nM
- Ki (5-HT1D; read-out: Binding affinity Ki (nM), 5-HT1D, radioligand binding): 390 nM
- Ki (5-HT2A; read-out: Binding affinity Ki (nM), 5-HT2A, radioligand binding): 72 nM
- Ki (5-HT2B; read-out: Binding affinity Ki (nM), 5-HT2B): 12 nM
- Ki (5-HT7; read-out: Binding affinity Ki (nM), 5-HT7, radioligand binding): 100 nM

SMILES: Cc1nc2cc(OCCCCN3CCN(c4cccc(Cl)c4Cl)[C@@H](C)C3)ccc2s1 [Compound 34, (S)-5-(4-(4-(2,3-Dichlorophenyl)-3-methylpiperazin-1-yl)butoxy)-2-methylbenzo[d]thiazole]
- activity in Gi/o signaling (in words) (hD2L receptors): no appreciable activity
- activity in β-arrestin recruitment (in words) (D2L receptors; Tango assay): no appreciable activity

SMILES: Cc1ccc2cccc(N3CCN(CCCCOc4ccc5sc(C)nc5c4)CC3)c2n1 [Compound 36, 2-Methyl-5-(4-(4-(2-methylquinolin-8-yl)piperazin-1-yl)butoxy)benzo[d]thiazole]
- Emax (hD2L receptors; read-out: cAMP Emax (%)): 25%
- Emax (D2L receptors): < 20%

SMILES: Cc1nc2cc(OCCCCN3CCN(c4cccc5c4OCCN5)CC3)ccc2s1 [Compound 39, 8-(4-(4-((2-Methylbenzo[d]thiazol-5-yl)oxy)butyl)piperazin-1-yl)-3,4-dihydro-2H-benzo[b][1,4]oxazine]
- Emax (hD2L receptors; read-out: cAMP Emax (%)): 29%
- Emax (D2L receptors): < 20%
- activity in β-arrestin recruitment (in words) (D2L receptors; Tango assay): did not recruit β-arrestin at all

SMILES: Cc1nc2cc(OCCCCN3CCN(c4cccc5c4OCCO5)CC3)ccc2s1 [Compound 40, 5-(4-(4-(2,3-Dihydrobenzo[b][1,4]dioxin-5-yl)piperazin-1-yl)butoxy)-2-methylbenzo[d]thiazole]
- Emax (hD2L receptors; read-out: cAMP Emax (%)): 50%
- EC50 (D2L receptors; Tango assay, HTLA cells): 3.6 nM

SMILES: Cc1nc2cc(OCCCCN3CCN(c4cccc(-c5ccccc5)c4C)CC3)ccc2s1 [Compound 44, 2-Methyl-5-(4-(4-(2-methyl-[1,1'-biphenyl]-3-yl)piperazin-1-yl)butoxy)benzo[d]thiazole]
- activity in Gi/o signaling (in words) (hD2L receptors): completely inactive
- activity in β-arrestin recruitment (in words) (D2L receptors; Tango assay): completely inactive

SMILES: Cc1nc2cc(OCCCCN3CCN(c4cccc5[nH]c(=O)oc45)CC3)ccc2s1 [Compound 45, 7-(4-(4-((2-Methylbenzo[d]thiazol-5-yl)oxy)butyl)piperazin-1-yl)benzo[d]oxazol-2(3H)-one]
- Emax (hD2L receptors; read-out: cAMP Emax (%)): 90%
- Emax (D2L receptors): 88%
- EC50 (D2L receptors; Tango assay, HTLA cells): 0.36 nM

SMILES: CC(C)c1nc2cc(OCCCCN3CCC(c4cccc(Cl)c4Cl)CC3)ccc2s1 [Compound 47, 5-(4-(4-(2,3-Dichlorophenyl)piperidin-1-yl)butoxy)-2-isopropylbenzo[d]thiazole]
- Emax (hD2L receptors; [3]): 33%
- Emax (D2L receptors): < 20%

SMILES: CCc1nc2cc(OCCCCN3CCN(c4cccc5ccc(C)nc45)CC3)ccc2s1 [Compound 48, 2-Ethyl-5-(4-(4-(2-methylquinolin-8-yl)piperazin-1-yl)butoxy)benzo[d]thiazole]
- Emax (hD2L receptors; [3]): 33%
- Emax (D2L receptors): < 20%

SMILES: CCc1nc2cc(OCCCCN3CCN(c4cccc5c4OCCO5)CC3)ccc2s1 [Compound 52, 5-(4-(4-(2,3-Dihydrobenzo[b][1,4]dioxin-5-yl)piperazin-1-yl)butoxy)-2-ethylbenzo[d]thiazole]
- activity in Gi/o signaling (in words) (hD2L receptors): inactive
- activity in β-arrestin recruitment (in words) (D2L receptors; Tango assay): inactive

SMILES: CNc1nc2cc(OCCCCN3CCN(c4cccc5c4OCCN5)CC3)ccc2s1 [Compound 56, 5-(4-(4-(3,4-Dihydro-2H-benzo[b][1,4]oxazin-8-yl)piperazin-1-yl)butoxy)-N-methylbenzo[d]thiazol-2-amine]
- Emax (hD2L receptors; [3]): 49%
- Emax (D2L receptors): 29%
- EC50 (D2L receptors; Tango assay, HTLA cells): 6.5 nM

SMILES: CNc1nc2cc(OCCCCN3CCN(c4cccc5c4OCCO5)CC3)ccc2s1 [Compound 57, 5-(4-(4-(2,3-Dihydrobenzo[b][1,4]dioxin-5-yl)piperazin-1-yl)butoxy)-N-methylbenzo[d]thiazol-2-amine]
- activity in Gi/o signaling (in words) (hD2L receptors): inactive
- activity in β-arrestin recruitment (in words) (D2L receptors; Tango assay): inactive

SMILES: Cc1nc2ccc(OCCCCN3CCC(c4cccc(Cl)c4Cl)CC3)cc2s1 [Compound 58, 6-(4-(4-(2,3-Dichlorophenyl)piperidin-1-yl)butoxy)-2-methylbenzo[d]thiazole]
- Emax (hD2L receptors; [3]): 56%
- Emax (D2L receptors): 24%
- EC50 (D2L receptors; Tango assay, HTLA cells): 460 nM

SMILES: Oc1c(CN2CCN(c3ccccn3)CC2)cc(Cl)c2cccnc12 [Compound 59, 5-Chloro-7-((4-(pyridin-2-yl)piperazin-1-yl)methyl)quinolin-8-ol, reference compound]
- Emax (hD2L receptors; read-out: cAMP Emax (%)): 63%
- Emax (D2L receptors): 67%
- EC50 (D2L receptors; Tango assay, HTLA cells): 102 nM and 46 nM
- Emax (mouse D2Long; HEK-293T, read-out: β-arrestin-2 recruitment BRET Emax (% of quinpirole)): 68%
- β-arrestin recruitment activity as measured by DiscoverX (human D2Rlong [1]): lack of β-arrestin-2 recruitment activity; also recorded: no activity
